Experimental data: BindingDB's records for doi:10.3109/14756366.2011.604851 (Shandong University, 2012)

Experiments:
Gag-Pol polyprotein [1] = target: T1, Gag-Pol polyprotein (Human immunodeficiency virus type 1 group M subtype B (isolate HXB2), UniProt P04585); assay: 3'-P Inhibitory Assay
Description: Cleavage of a dinucleotide from each 3'-end of viral cDNA. All biological assays were performed essentially as previously described [Dayam et al., J. Med. Chem., 51:1136-1144].

Gag-Pol polyprotein [2] = target: T1, Gag-Pol polyprotein; assay: ST Inhibitory Assay
Description: Insertion of two newly processed 3'-viral DNA ends into the host-cell chromosome. All biological assays were performed essentially as previously described [Dayam et al., J. Med. Chem., 51:1136-1144].

CC(=O)Oc1ccc(/C=C/C(=O)Nc2ccc(S(=O)(=O)Nc3ccc(Cl)c(Cl)c3)cc2)cc1OC(C)=O [(E)-3-(3,4-Diacetoxyphenyl)-N-(4-(3,4-Dichlorophenylsulfamoyl)phenyl)acrylamide (10h)]
IC50 (Gag-Pol polyprotein [1]): 75 µM
IC50 (Gag-Pol polyprotein [2]): 7 µM

CC(=O)Oc1ccc(/C=C/C(=O)Nc2ccc(S(=O)(=O)Nc3ccc(F)c(F)c3)cc2)cc1OC(C)=O [(E)-3-(3,4-Diacetoxyphenyl)-N-(4-(3,4-Difluorophenylsulfamoyl)phenyl)acrylamide (10b)]
IC50 (Gag-Pol polyprotein [1]): 60 µM
IC50 (Gag-Pol polyprotein [2]): 11 µM

CC(=O)Oc1ccc(/C=C/C(=O)Nc2ccc(S(=O)(=O)Nc3cc(C)cc(C)c3)cc2)cc1OC(C)=O [(E)-3-(3,4-Diacetoxyphenyl)-N-(4-(3,5-Dimethylphenylsulfamoyl)phenyl)acrylamide (10k)]
IC50 (Gag-Pol polyprotein [1]): 80 µM
IC50 (Gag-Pol polyprotein [2]): 16 µM

CC(=O)Oc1ccc(/C=C/C(=O)Nc2ccc(S(=O)(=O)Nc3cccc(Cl)c3F)cc2)cc1OC(C)=O [(E)-3-(3,4-Diacetoxyphenyl)-N-(4-(3-chloro-2-fluorophenylsulfamoyl)phenyl)acrylamide (10l)]
IC50 (Gag-Pol polyprotein [1]): 50 µM
IC50 (Gag-Pol polyprotein [2]): 13 µM

O=C(/C=C/c1ccc(O)c(O)c1)Nc1ccc(S(=O)(=O)Nc2ccccc2Br)cc1 [(E)-3-(3,4-Dihydroxyphenyl)-N-(4-(2-Bromophenylsulfamoyl)phenyl)acrylamide (11g)]
IC50 (Gag-Pol polyprotein [1]): 11 µM
IC50 (Gag-Pol polyprotein [2]): 9 µM

O=C(/C=C/c1ccc(O)c(O)c1)Nc1ccc(S(=O)(=O)Nc2ccc(Cl)c(Cl)c2)cc1 [(E)-3-(3,4-Dihydroxyphenyl)-N-(4-(3,4-Dichlorophenylsulfamoyl)phenyl)acrylamide (11h)]
IC50 (Gag-Pol polyprotein [1]): 17 µM
IC50 (Gag-Pol polyprotein [2]): 6 µM

O=C(/C=C/c1ccc(O)c(O)c1)Nc1ccc(S(=O)(=O)Nc2ccc(F)c(F)c2)cc1 [(E)-3-(3,4-Dihydroxyphenyl)-N-(4-(3,4-Difluorophenylsulfamoyl)phenyl)acrylamide (11b)]
IC50 (Gag-Pol polyprotein [1]): 11 µM
IC50 (Gag-Pol polyprotein [2]): 6 µM

Cc1cc(C)cc(NS(=O)(=O)c2ccc(NC(=O)/C=C/c3ccc(O)c(O)c3)cc2)c1 [(E)-3-(3,4-Dihydroxyphenyl)-N-(4-(3,5-Dimethylphenylsulfamoyl)phenyl)acrylamide (11k)]
IC50 (Gag-Pol polyprotein [1]): 5 µM
IC50 (Gag-Pol polyprotein [2]): 4 µM

O=C(/C=C/c1ccc(O)c(O)c1)Nc1ccc(S(=O)(=O)Nc2cccc(Br)c2)cc1 [(E)-3-(3,4-Dihydroxyphenyl)-N-(4-(3-Bromophenylsulfamoyl)phenyl)acrylamide (11f)]
IC50 (Gag-Pol polyprotein [1]): 49 µM
IC50 (Gag-Pol polyprotein [2]): 22 µM

O=C(/C=C/c1ccc(O)c(O)c1)Nc1ccc(S(=O)(=O)Nc2ccc(F)c(Br)c2)cc1 [(E)-3-(3,4-Dihydroxyphenyl)-N-(4-(3-bromo-4-fluorophenylsulfamoyl)phenyl)acrylamide (11u)]
IC50 (Gag-Pol polyprotein [1]): 8 µM
IC50 (Gag-Pol polyprotein [2]): 4 µM

O=C(/C=C/c1ccc(O)c(O)c1)Nc1ccc(S(=O)(=O)Nc2cccc(Cl)c2F)cc1 [(E)-3-(3,4-Dihydroxyphenyl)-N-(4-(3-chloro-2-fluorophenylsulfamoyl)phenyl)acrylamide (11l)]
IC50 (Gag-Pol polyprotein [1]): 22 µM
IC50 (Gag-Pol polyprotein [2]): 14 µM

O=C(/C=C/c1ccc(O)c(O)c1)Nc1ccc(S(=O)(=O)Nc2ccc(F)c(Cl)c2)cc1 [(E)-3-(3,4-Dihydroxyphenyl)-N-(4-(3-chloro-4-fluorophenylsulfamoyl)phenyl)acrylamide (11v)]
IC50 (Gag-Pol polyprotein [1]): 8 µM
IC50 (Gag-Pol polyprotein [2]): 4 µM

O=C(/C=C/c1ccc(O)c(O)c1)Nc1ccc(S(=O)(=O)Nc2ccc(Br)cc2)cc1 [(E)-3-(3,4-Dihydroxyphenyl)-N-(4-(4-Bromophenylsulfamoyl)phenyl)acrylamide (11e)]
IC50 (Gag-Pol polyprotein [1]): 35 µM
IC50 (Gag-Pol polyprotein [2]): 8 µM

CCCCc1ccc(NS(=O)(=O)c2ccc(NC(=O)/C=C/c3ccc(O)c(O)c3)cc2)cc1 [(E)-3-(3,4-Dihydroxyphenyl)-N-(4-(4-Butylphenylsulfamoyl)phenyl)acrylamide (11i)]
IC50 (Gag-Pol polyprotein [1]): 25 µM
IC50 (Gag-Pol polyprotein [2]): 7 µM

CCOc1ccc(NS(=O)(=O)c2ccc(NC(=O)/C=C/c3ccc(O)c(O)c3)cc2)cc1 [(E)-3-(3,4-Dihydroxyphenyl)-N-(4-(4-Ethoxylphenylsulfamoyl)phenyl)acrylamide (11j)]
IC50 (Gag-Pol polyprotein [1]): 35 µM
IC50 (Gag-Pol polyprotein [2]): 9 µM

O=C(/C=C/c1ccc(O)c(O)c1)Nc1ccc(S(=O)(=O)NCc2ccc(F)cc2)cc1 [(E)-3-(3,4-Dihydroxyphenyl)-N-(4-(4-Fluorobenzylsulfamoyl)phenyl)acrylamide (11d)]
IC50 (Gag-Pol polyprotein [1]): 24 µM
IC50 (Gag-Pol polyprotein [2]): 9 µM

O=C(/C=C/c1ccc(O)c(O)c1)Nc1ccc(S(=O)(=O)NCCc2ccc(F)cc2)cc1 [(E)-3-(3,4-Dihydroxyphenyl)-N-(4-(4-Fluorophenethylsulfamoyl)phenyl)acrylamide (11t)]
IC50 (Gag-Pol polyprotein [1]): 14 µM
IC50 (Gag-Pol polyprotein [2]): 10 µM

O=C(/C=C/c1ccc(O)c(O)c1)Nc1ccc(S(=O)(=O)Nc2ccc(F)cc2)cc1 [(E)-3-(3,4-Dihydroxyphenyl)-N-(4-(4-Fluorophenylsulfamoyl)phenyl)acrylamide (11a)]
IC50 (Gag-Pol polyprotein [1]): 8 µM
IC50 (Gag-Pol polyprotein [2]): 5 µM

O=C(/C=C/c1ccc(O)c(O)c1)Nc1ccc(S(=O)(=O)Nc2ccccc2)cc1 [(E)-3-(3,4-Dihydroxyphenyl)-N-(4-phenylsulfamoylphenyl)acrylamide (11m)]
IC50 (Gag-Pol polyprotein [1]): 16 µM
IC50 (Gag-Pol polyprotein [2]): 12 µM

CC(=O)Oc1cc(C(=O)Nc2ccc(S(=O)(=O)Nc3ccccc3Br)cc2)cc(OC(C)=O)c1OC(C)=O [N-(4-(2-Bromophenylsulfamoyl)phenyl)-3,4,5-triacetoxybenzamide (8g)]
IC50 (Gag-Pol polyprotein [1]): 12 µM
IC50 (Gag-Pol polyprotein [2]): 3 µM

O=C(Nc1ccc(S(=O)(=O)Nc2ccccc2Br)cc1)c1cc(O)c(O)c(O)c1 [N-(4-(2-Bromophenylsulfamoyl)phenyl)galloylamide (9g)]
IC50 (Gag-Pol polyprotein [1]): 5 µM
IC50 (Gag-Pol polyprotein [2]): 1.4 µM

CC(=O)Oc1cc(C(=O)Nc2ccc(S(=O)(=O)Nc3ccccc3C)cc2)cc(OC(C)=O)c1OC(C)=O [N-(4-(2-Methylphenylsulfamoyl)phenyl)-3,4,5-triacetoxybenzamide (8s)]
IC50 (Gag-Pol polyprotein [1]): > 10 µM
IC50 (Gag-Pol polyprotein [2]): 1.6 µM

Cc1ccccc1NS(=O)(=O)c1ccc(NC(=O)c2cc(O)c(O)c(O)c2)cc1 [N-(4-(2-Methylphenylsulfamoyl)phenyl)galloylamide (9s)]
IC50 (Gag-Pol polyprotein [1]): 7 µM
IC50 (Gag-Pol polyprotein [2]): 2 µM

O=C(Nc1ccc(S(=O)(=O)Nc2ccc(Cl)c(Cl)c2)cc1)c1cc(O)c(O)c(O)c1 [N-(4-(3,4-Dichlorophenylsulfamoyl)phenyl)galloylamide (9h)]
IC50 (Gag-Pol polyprotein [1]): 5 µM
IC50 (Gag-Pol polyprotein [2]): 1.7 µM

Cc1ccc(NS(=O)(=O)c2ccc(NC(=O)c3cc(O)c(O)c(O)c3)cc2)cc1C [N-(4-(3,4-Dimethylphenylsulfamoyl)phenyl)galloylamide (9p)]
IC50 (Gag-Pol polyprotein [1]): 8 µM
IC50 (Gag-Pol polyprotein [2]): 8 µM

Cc1cc(C)cc(NS(=O)(=O)c2ccc(NC(=O)c3cc(O)c(O)c(O)c3)cc2)c1 [N-(4-(3,5-Dimethylphenylsulfamoyl)phenyl)galloylamide (9k)]
IC50 (Gag-Pol polyprotein [1]): 8 µM
IC50 (Gag-Pol polyprotein [2]): 2.5 µM

O=C(Nc1ccc(S(=O)(=O)Nc2cccc(Br)c2)cc1)c1ccc(O)c(O)c1 [N-(4-(3-Bromophenylsulfamoyl)phenyl)3,4-dihydroxybenzamide (11x)]
IC50 (Gag-Pol polyprotein [1]): 45 µM
IC50 (Gag-Pol polyprotein [2]): 15 µM

O=C(Nc1ccc(S(=O)(=O)Nc2cccc(Br)c2)cc1)c1cc(O)c(O)c(O)c1 [N-(4-(3-Bromophenylsulfamoyl)phenyl)galloylamide (9f)]
IC50 (Gag-Pol polyprotein [1]): 2 µM
IC50 (Gag-Pol polyprotein [2]): 0.7 µM

CC(=O)Oc1cc(C(=O)Nc2ccc(S(=O)(=O)Nc3cccc(Cl)c3F)cc2)cc(OC(C)=O)c1OC(C)=O [N-(4-(3-chloro-2-fluorophenylsulfamoyl)phenyl)-3,4,5-triacetoxybenzamide (8l)]
IC50 (Gag-Pol polyprotein [1]): 5 µM
IC50 (Gag-Pol polyprotein [2]): 2 µM

O=C(Nc1ccc(S(=O)(=O)Nc2cccc(Cl)c2F)cc1)c1cc(O)c(O)c(O)c1 [N-(4-(3-chloro-2-fluorophenylsulfamoyl)phenyl)galloylamide (9l)]
IC50 (Gag-Pol polyprotein [1]): 1.3 µM
IC50 (Gag-Pol polyprotein [2]): 0.8 µM

O=C(Nc1ccc(S(=O)(=O)Nc2ccc(Br)cc2)cc1)c1cc(O)c(O)c(O)c1 [N-(4-(4-Bromophenylsulfamoyl)phenyl)galloylamide (9e)]
IC50 (Gag-Pol polyprotein [1]): 3 µM
IC50 (Gag-Pol polyprotein [2]): 0.7 µM

CCCCc1ccc(NS(=O)(=O)c2ccc(NC(=O)c3cc(O)c(O)c(O)c3)cc2)cc1 [N-(4-(4-Butylphenylsulfamoyl)phenyl)galloylamide (9i)]
IC50 (Gag-Pol polyprotein [1]): 3 µM
IC50 (Gag-Pol polyprotein [2]): 2.5 µM

O=C(Nc1ccc(S(=O)(=O)NCc2ccc(Cl)cc2)cc1)c1cc(O)c(O)c(O)c1 [N-(4-(4-Chlorobenzylsulfamoyl)phenyl)galloylamide (9o)]
IC50 (Gag-Pol polyprotein [1]): 5 µM
IC50 (Gag-Pol polyprotein [2]): 2 µM

O=C(Nc1ccc(S(=O)(=O)Nc2ccc(Cl)cc2)cc1)c1cc(O)c(O)c(O)c1 [N-(4-(4-Chlorophenylsulfamoyl)phenyl)galloylamide (9n)]
IC50 (Gag-Pol polyprotein [1]): 6 µM
IC50 (Gag-Pol polyprotein [2]): 2 µM

CCOc1ccc(NS(=O)(=O)c2ccc(NC(=O)c3cc(O)c(O)c(O)c3)cc2)cc1 [N-(4-(4-Ethoxylphenylsulfamoyl)phenyl)galloylamide (9j)]
IC50 (Gag-Pol polyprotein [1]): 6 µM
IC50 (Gag-Pol polyprotein [2]): 1.3 µM

O=C(Nc1ccc(S(=O)(=O)NCc2ccc(F)cc2)cc1)c1cc(O)c(O)c(O)c1 [N-(4-(4-Fluorobenzylsulfamoyl)phenyl)galloylamide (9d)]
IC50 (Gag-Pol polyprotein [1]): 7 µM
IC50 (Gag-Pol polyprotein [2]): 2 µM

O=C(Nc1ccc(S(=O)(=O)Nc2ccc(F)cc2)cc1)c1cc(O)c(O)c(O)c1 [N-(4-(4-Fluorophenylsulfamoyl)phenyl)galloylamide (9a)]
IC50 (Gag-Pol polyprotein [1]): 7 µM
IC50 (Gag-Pol polyprotein [2]): 0.9 µM

COc1ccc(NS(=O)(=O)c2ccc(NC(=O)c3cc(O)c(O)c(O)c3)cc2)cc1 [N-(4-(4-Methoxylphenylsulfamoyl)phenyl)galloylamide (9q)]
IC50 (Gag-Pol polyprotein [1]): 5 µM
IC50 (Gag-Pol polyprotein [2]): 4.5 µM

O=C(Nc1ccc(S(=O)(=O)Nc2ccc([N+](=O)[O-])cc2)cc1)c1cc(O)c(O)c(O)c1 [N-(4-(4-Nitrophenylsulfamoyl)phenyl)galloylamide (9r)]
IC50 (Gag-Pol polyprotein [1]): 4 µM
IC50 (Gag-Pol polyprotein [2]): 3 µM
